Reference: patent US11357651B2, “Stent assembly and method of preparing the stent assembly” (Nanyang Technological University, priority 2015, dated 2022)

Test system: human bladder stroma fibroblasts
Test: Cell work: fibroblast viability (prestoblue) after mitomycin C treatment
Type: cell-based
Details: 3 days of drug treatment
Procedure: FIGS. 13(A) and (B) are graphs showing (A) relative cell count vs MMC concentrations (μg/mL), and (B) dose-response curve.
In each well of a 96 well cell culture plate, 3000 human bladder stroma fibroblasts cells are seeded. After one day of seeding, different concentrations of mitomycin C dissolved in cell media (200 μL) were added to the well. After 3 days of drug treatment, the drug media was removed and the well added with 70 μL of a cell viability reagent, prestoblue, in the ratio of 9:1 (cell media: prestoblue).

Which GI50 does the source give for `CO[C@@]12[C@H](COC(N)=O)C3=C(C(=O)C(C)=C(N)C3=O)N1C[C@@H]1N[C@@H]12` [MMC, mitomycin C] here?
The GI50 was “about 0.115 μg/mL”.

And the “minimum concentration of MMC required to cause death of / inhibit proliferation of fibroblasts” value?
Its value is 0.01 µg/mL.
